Experimental data published in patent US20110201023A1, “MANNOSE 6-PHOSPHATE-BINDING ANTIBODIES AND THEIR USES” (UNIVERSITATSKLINKUM HAMBURGEPPENDORF, priority 2008, published 2011).
Values belong to the molecule of their own block, whether it stands above or below them.

Columns and labels:
scFv M6P-1 = assay: ELISA inhibition study: binding of scFv M6P-1 to immobilized PMP-BSA; set-up: species or system rabbit; conditions: for IC50: scFv 0.6 μg/ml preincubated 1 h at 37° C. with 0.01 to 100 mM inhibitor, 45 pmol/cup PMP-BSA, read-out: 50% inhibition (IC50 value) of scFv M6P-1 binding to PMP-BSA; for inhibition of the binding of scFv M6P-1 to PMP-BSA: even at high concentrations (0.01 to 100 mM tested)
Experimental: ELISA was performed according to the protocol published in Phage-Display: A Laboratory Manual, Cold Spring Harbor Laboratory Press, New York (2001), protocol 19.8, pages 19.29-19.31. For ELISA using monoclonal phage or soluble scFv, PMP-BSA was immobilized by addition of 2.25 pmol neoglycoconjugate (45 pmol PMP ligand, solution in 50 mM carbonate buffer, pH 9.2) to each cup of the ELISA plates (MaxiSorp, Nunc) and overnight incubation at 4° C. Phages were detected using an anti-M13 monoclonal antibody (mAb) HRP-conjugate (GE Healthcare, Freiburg, Germany) and diammonium 2,2′-azino-bis(3-ethylbenzothiazoline-6-sulfonate (AzBTS-(NH4)2, Sigma-Aldrich) as substrate. For scFv-ELISA against PMP-BSA, purified scFv was added at a starting concentration of 5 μg/ml. Bound scFv was detected by incubation with anti-c-myc mAb (gift from Dr. C. R. MacKenzie, NRC of Canada, Ottawa, Canada) and HRP-conjugated goat-anti-mouse IgG H+L (Dianova, Hamburg, Germany). For ELISA inhibition studies, 45 pmoles PMP-BSA were immobilized on ELISA plates. Monomeric scFv M6P-1 was freshly prepared by gelfiltration (see above). Antibody fragment scFv (0.6 μg/ml final concentration) was preincubated for 1 h at 37° C. with or without 0.01 to 100 mM of mannose, glucose, glucose-6-phosphate (Glc6P), Fru1P, or Man6P. 50 μl scFv M6P-1 were added to PMP-BSA (45 pmol/cup ligand concentration). Bound scFv M6P-1 was quantified after incubation (i) with an antibody directed against the c-myc tag of the antibody scFv M6P-1 and (ii) a HRP-conjugated goat-anti-mouse H/L antibody. The […] reaction was measured spectrophotometrically at OD405. All data were measured in quadruplicates and the standard deviation from the mean is indicated. The data were analyzed using Origin version 6.0 software (MicroCal, Northampton, USA) and fitted to a 4 parameter logistic function. The data obtained for inhibition by Man6P and Fru1P were globally fitted to the four replicate data sets, each separately.

[1] = system: scFv M6P-1 conjugated beads / [125I]ASA (human arylsulfatase A); assay: Immunoprecipitation of [125I]ASA with scFv M6P-1 conjugated beads; type: binding
Experimental: Monomeric or dimeric scFv M6P-1 (about 1 mg/ml in PBS, pH 7.2) isolated by gel filtration (see above) was chemically immobilized to AminoLink Plus Coupling gel beads (Pierce, USA) following the suppliers instructions (1 mg scFv M6P-1 was coupled to 2 ml of settled beads). Human arylsulfatase A (ASA)(kindly provided by Dr. […]; Institute for Biochemistry, University of Bielefeld, Germany) was purified by affinity chromatography from media of BHK cells which overexpress the enzyme as described by Sommerlade et al. (1994) Biochem. J. 297, 123-130 and iodinated with IODO-GEN (Pierce) according to the manufacturer's instructions yielding [^125I]ASA with a specific activity of 2 μCi/μg. [^125I]ASA (400,000 cpm) was incubated with 50 μl scFv M6P-1 conjugated beads in 10 mM phosphate buffered saline pH 7.4 containing 0.05% Triton X-100 in a final volume of 0.5 ml in the absence or presence of increasing concentrations of Man6P for 10 h at 4° C. Subsequently, the beads were spun down at 1,200×g for 20 sec, and the supernatant was removed. The beads were washed three times with ice-cold binding buffer, twice with 1 mM phosphate buffered saline pH 7.4, and solubilized in SDS sample buffer. After removal of the beads, the supernatants were separated by SDS-PAGE (10% acrylamide), and the [^125I]ASA was visualized by autoradiography using Kodak films. The intensity of the [^125I]-labeled polypeptides was evaluated by densitometry. Alternatively, the [^125I]-labeled polypeptides were excised from the dried gel and counted in a γ-counter (Wizard 1470, Wallac, Turku, Finland).

[2] = Isothermal titration microcalorimetry; conditions: dimeric scFv M6P-1 in PBS pH 7.2; 10 mM Man6P injected; read-out: Kd for the binding of scFv M6P-1 to Man6P
Experimental: The comparison of IC50 values allows the ranking of different ligands according to their relative affinities, however, the absolute affinities in terms of Kd can not be obtained. Therefore, isothermal titration microcalorimetry measurements using Man6P as a ligand were performed. Purified dimeric scFv M6P-1 obtained after gel filtration (both a monomer and a dimer fraction are obtained) was concentrated in Centriprep YM-10 (Millipore) to a final concentration of 2.7 mg/ml in PBS, pH 7.2 and dialysed for 1 h at 20° C. against 500 ml of PBS. The same dialysis buffer was used for preparation of a 10 mM solution of Man6P (Na^+ salt, Sigma-Aldrich). Microcalorimetric experiments were performed on an MCS isothermal titration calorimeter (Microcal Inc., Northampton, Mass., USA). The microcalorimeter cell was filled with the antibody solution (volume=1.5 ml) and Man6P in dialysis buffer loaded into the syringe of the microcalorimeter. Both solutions were thoroughly degassed prior to loading. After temperature equilibration, the ligand was injected into the cell in 4 μl portions and the evolved heat measured with the first injection (1 μl) not considered for data analysis. […] Dissociation constants were determined using the MicroCal Origin version 2.9 analysis software and non-linear least squares curve fitting (1 set of binding sites).

PMP-BSA = assay: Phage ELISA against PMP-BSA; type: binding; conditions: 1:3 (v/v) dilutions of phage
Experimental: The reactivity of the enriched polyclonal phage was tested in an ELISA checkerboard titration against different concentrations of PMP-BSA (3-100 pmol/cup calculated for PMP concentration). At 50 pmol/cup reactivity of the polyclonal phage was observed selectively for PMP-BSA but not for BSA. BstOI (Promega GmbH, Germany) restriction digest of 20 colony PCR products indicated the presence of 7 different clones (4× type A, 10× type B, 2× type C and 1× types D-G). Twelve colonies representing the different types of sequences (5× type B, 2× type A, 1× each of types C-G) were selected for phage production and 1:3 (v/v) dilutions of phage were tested in ELISA against PMP-BSA. […]
ELISA was performed according to the protocol published in Phage-Display: A Laboratory Manual, Cold Spring Harbor Laboratory Press, New York (2001), protocol 19.8, pages 19.29-19.31. […] Phages were detected using an anti-M13 monoclonal antibody (mAb) HRP-conjugate (GE Healthcare, Freiburg, Germany) and diammonium 2,2′-azino-bis(3-ethylbenzothiazoline-6-sulfonate (AzBTS-(NH4)2, Sigma-Aldrich) as substrate. For scFv-ELISA against PMP-BSA, purified scFv was added at a starting concentration of 5 μg/ml. Bound scFv was detected by incubation with anti-c-myc mAb (gift from Dr. C. R. MacKenzie, NRC of Canada, Ottawa, Canada) and HRP-conjugated goat-anti-mouse IgG H+L (Dianova, Hamburg, Germany).

inhibition of the binding of scFv M6P-1 to PMP-BSA (scFv M6P-1): Neither
Molecule: O=C[C@@H](O)[C@@H](O)[C@H](O)[C@H](O)CO [mannose]

total offered [125I]-ASA bound specifically to the scFv M6P-1 conjugated beads ([1]; 10 h at 4° C., absence of Man6P): 20-25%
Kd [2]: 28 µM
B1: scFv M6P-1: recombinant rabbit single-chain antibody fragment which specifically binds mannose 6-phosphate; VL SEQ ID NO:7, VH SEQ ID NO:8 (antibody, listed as Oryctolagus cuniculus, V domains shown)
VH: QSVKESEGDLVKPGASLTLTCKASGFDFTWYTMNWVRQAPGKGLEWIACIGAGVYGSNYYASWAKGRFTISKASSTTVTLQMTSLTVADTATYFCARDGINGGYDIWGPGTLVTVSS
VL: ELVMTQTESPVSAAVGGTVTIKCQSSQSVYNNRLAWYQQKPGQRPKLLIYSASTLASGVPSRFKGSGSGTQFTLTISDLEWGDAATYYCHGGYRSNDDRYAFSGGTELEIL
modifications: scFv linker not given
reactivity of monoclonal phage in ELISA against PMP-BSA (PMP-BSA): reacted

Continued, molecule first:

Molecule: O=P(O)(O)OC[C@@]1(O)OC[C@@H](O)[C@@H](O)[C@@H]1O [Fru1P, β-D-fructopyranose-1-phosphate]
IC50 (scFv M6P-1): 1100 µM

Molecule: O=C[C@H](O)[C@@H](O)[C@H](O)[C@H](O)COP(=O)(O)O [Glc6P, glucose 6-phosphate]
inhibition of the binding of scFv M6P-1 to PMP-BSA (scFv M6P-1): Neither
effect on binding of [125I]-ASA to the antibody beads ([1]; 5 mM): no effect

Molecule: O=C[C@@H](O)[C@@H](O)[C@H](O)[C@H](O)COP(=O)(O)O [Man6P, mannose 6-phosphate]
IC50 (scFv M6P-1): 2300 µM
inhibition of binding of [125I]-ASA to the antibody beads ([1]; Man6P in a concentration of more than 2.5 mM): completely inhibited
Ki ([1]; calculated from densitometric evaluation of autoradiographs or radioactivity in excised bands): 100 µM
